Here are results for eight compounds from patent US8124788B2, “Spirocyclic cyclohexane compounds with analgesic activity” (Gruenenthal GmbH, priority 2006, dated 2012).

pKi: −log10 of the molar value. Structures can show the parent of a compound that is named as a salt.

The target in one data set is T1, Noradrenaline reuptake (Rattus norvegicus, UniProt Q63380).
T1 construct: synaptosomes are freshly isolated from areas of the rat brain; from tissue; host or cells: P2 synaptosome fraction from the hypothalamus of male rat brains
Nature of the data set: Inhibition of noradrenaline (NA) reuptake in rat brain synaptosomes. It is filed as biochemical. The note with it: synaptosomes from rat hypothalamus. Here is the method: (§1) In order to be able to carry out these in vitro studies, synaptosomes are freshly isolated from areas of the rat brain. In each case a so-called “P2” fraction prepared in accordance with the instruction of Gray and Whittaker (E. G. Gray and V. P. Whittaker (1962) J. Anat. 76, 79-88) is prepared. For the NA uptake, these vesicular particles are isolated from the hypothalamus of male rat brains.
(§2) A detailed description of the method can be found in the literature (M. Ch. Frink, H.-H. Hennies, W. Englberger, M. Haurand and B. Wilffert (1996) Arzneim.-Forsch./Drug Res. 46 (III), 11, 1029-1036).

Another data set has as its target T2, Serotonin reuptake (Rattus norvegicus, UniProt P31652).
T2 construct: synaptosomes are freshly isolated from areas of the rat brain; from tissue
Put plainly: Inhibition of serotonin (5HT) reuptake in rat brain synaptosomes. The data set is classed as biochemical. The procedure: as §1, §2

A further data set has as its target T3, human μ opiate receptor (Homo sapiens, UniProt P35372).
T3 construct: purchased PerkinElmer Life Sciences, Zaventem, Belgium RB-HOM; host or cells: CHO-K1 cells (recombinant expression)
Put plainly: Affinity for the human μ opiate receptor ([3H]-naloxone displacement, CHO-K1 membrane preparation, SPA). The data set is classed as binding. The note with it: for inhibition at 1 µM: 1 μM test substance, displacement of [3H]-naloxone, read-out: μ opioid receptor [1 μM], % inhibition; for pKi: Cheng-Prusoff conversion from IC50, read-out: μ opioid receptor, Ki. The method in brief:
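CHO-K1 membranes expressing human μ receptor (15-40 μg protein/250 μl) were incubated 90 min at room temperature with 1 nmol/l [³H]-naloxone and WGA-SPA beads in 50 mmol/l Tris-HCl with 0.06% BSA; 100 μmol/l naloxone defined nonspecific binding. Percent displacement measured at 1 μmol/l; IC50 converted to Ki via Cheng-Prusoff.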

The test system of data set [1] is phenylquinone-induced writhing in mice. Put plainly: Phenylquinone writhing. The data set is classed as in vivo. Conditions: 10 mg/kg intravenously, male NMRI mice. The procedure:
The analgesic activity was investigated in the phenylquinone-induced writhing in mice (modified in accordance with I. C. Hendershot und J. Forsaith (1959) J. Pharmacol. Exp. Ther. 125, 237-240), Male NMRI mice weighing from 25 to 30 g were used for this. Groups of 10 animals per substance dose received 0.3 ml/mouse of a 0.02% strength aqueous solution of phenylquinone (phenylbenzoquinone, Sigma, Deisenhofen; preparation of the solution with the addition of 5% ethanol and storage in a water bath at 45° C.) administered intraperitoneally 10 minutes after intravenous administration of the test substances. The animals were placed individually in observation cages. The number of pain-induced stretching movements (so-called writhing reactions=straightening of the body with stretching of the rear extremities) was counted by means of a push-button counter 5 to 20 minutes after the administration of phenylquinone. Animals which receive only 5% strength Cremophor solution were also run as a control. All the substances were tested in the standard dosage of 10 mg/kg. The percentage inhibition (% inhibition) of the writhing reaction by a substance was calculated according to the following formula: […]

T1 sequence (Q63380 1-617): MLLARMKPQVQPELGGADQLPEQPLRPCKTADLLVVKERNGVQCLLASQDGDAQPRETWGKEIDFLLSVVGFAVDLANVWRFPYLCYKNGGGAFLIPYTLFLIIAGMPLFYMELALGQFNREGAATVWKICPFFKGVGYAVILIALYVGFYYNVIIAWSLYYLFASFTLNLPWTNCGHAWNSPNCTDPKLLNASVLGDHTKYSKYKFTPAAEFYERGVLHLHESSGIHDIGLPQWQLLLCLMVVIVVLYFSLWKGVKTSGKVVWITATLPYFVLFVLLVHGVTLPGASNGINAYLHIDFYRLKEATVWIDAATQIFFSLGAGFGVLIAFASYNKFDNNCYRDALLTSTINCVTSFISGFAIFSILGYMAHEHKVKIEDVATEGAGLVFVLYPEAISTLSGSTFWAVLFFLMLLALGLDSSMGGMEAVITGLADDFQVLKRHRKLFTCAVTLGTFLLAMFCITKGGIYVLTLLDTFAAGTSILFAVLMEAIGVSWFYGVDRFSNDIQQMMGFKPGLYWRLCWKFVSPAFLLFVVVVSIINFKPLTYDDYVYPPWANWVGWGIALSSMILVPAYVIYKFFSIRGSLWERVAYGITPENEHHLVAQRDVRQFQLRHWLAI
T3 sequence (P35372 whole entry): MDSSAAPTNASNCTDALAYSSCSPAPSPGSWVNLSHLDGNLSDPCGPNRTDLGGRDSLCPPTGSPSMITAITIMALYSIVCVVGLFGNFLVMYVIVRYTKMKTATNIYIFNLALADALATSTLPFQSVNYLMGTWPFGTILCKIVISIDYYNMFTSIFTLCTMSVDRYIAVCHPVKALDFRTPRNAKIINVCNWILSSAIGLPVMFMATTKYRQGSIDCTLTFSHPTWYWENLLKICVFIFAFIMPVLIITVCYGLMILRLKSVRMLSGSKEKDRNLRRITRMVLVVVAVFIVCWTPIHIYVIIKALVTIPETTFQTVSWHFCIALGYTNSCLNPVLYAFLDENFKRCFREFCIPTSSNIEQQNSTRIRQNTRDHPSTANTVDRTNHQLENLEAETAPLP
T2 sequence (P31652 whole entry): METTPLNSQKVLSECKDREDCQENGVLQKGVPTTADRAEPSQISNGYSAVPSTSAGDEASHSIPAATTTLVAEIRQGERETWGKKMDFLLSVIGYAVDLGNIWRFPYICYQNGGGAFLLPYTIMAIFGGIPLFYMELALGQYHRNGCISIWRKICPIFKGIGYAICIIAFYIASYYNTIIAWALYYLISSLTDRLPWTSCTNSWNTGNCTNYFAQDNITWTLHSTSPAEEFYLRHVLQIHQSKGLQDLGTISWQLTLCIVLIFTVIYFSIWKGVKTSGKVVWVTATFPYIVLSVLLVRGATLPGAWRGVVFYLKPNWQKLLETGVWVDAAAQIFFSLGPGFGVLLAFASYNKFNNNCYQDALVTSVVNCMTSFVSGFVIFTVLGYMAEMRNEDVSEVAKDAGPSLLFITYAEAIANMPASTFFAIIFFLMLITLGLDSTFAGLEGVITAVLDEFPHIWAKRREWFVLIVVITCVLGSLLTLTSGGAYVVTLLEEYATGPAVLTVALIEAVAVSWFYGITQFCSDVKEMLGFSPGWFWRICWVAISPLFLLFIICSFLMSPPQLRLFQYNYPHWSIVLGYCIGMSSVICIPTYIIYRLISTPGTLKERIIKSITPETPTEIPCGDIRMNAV

Consider `CN(C)C(CCc1ccccc1)C1CCC2(CC1)NCCc1c2[nH]c2ccccc12` (stereo not drawn) (as salt: citrate) [Compound 20, 1,1-[3-(Dimethylamino-(phenylethyl)-methyl)-pentamethylene]-3,4-dihydro-1H-2,9-diazafluorene Citrate], for which the melting point lay within 130 to 135 °C.

Consider `Cc1ccc2[nH]c3c(c2c1)CC(C)OC31CCC(C(c2ccccc2)N(C)C)CC1` (stereo not drawn) (as salt: citrate) [Compound 42, 3,6-Dimethyl-1,1-[3-(dimethylamino-(phenyl)-methyl)-pentamethylene]-1,3,4,9-tetrahydropyrano[3,4-b]indole Citrate], for which the melting point lay within 245 to 250 °C.

`CN(C)C(c1cccc(F)c1)C1CCC2(CC1)NCCc1c2[nH]c2ccccc12` (stereo not drawn) [Compound 18, 1,1-[3-(Dimethylamino-(3-fluorophenyl)methyl)-pentamethylene]-3,4-dihydro-1H-2,9-diazafluorene] came in with a melting point of 226 to 229 °C. In addition, at Noradrenaline reuptake, the inhibition at 10 µM amounted to 58%. For the same compound, 10 µM produced 64% inhibition on Serotonin reuptake. For the same compound, at human μ opiate receptor, the inhibition at 1 µM was 74% and the pKi is 6.59.

For the compound `CN(C)C(c1ccccc1)C1CCC2(CC1)NCCc1c2[nH]c2ccccc12` (stereo not drawn) [Compound 19, 1,1-[3-(Dimethylamino-phenylmethyl)-pentamethylene]-3,4-dihydro-1H-2,9-diazafluorene], the melting point is 182 to 184 °C. Besides, 10 µM produced 65% inhibition on Noradrenaline reuptake. This compound registered an inhibition at 10 µM against Serotonin reuptake of 91%. Moreover, at human μ opiate receptor, the inhibition at 1 µM was found to be 81% and the pKi is 6.74.

As for `CN(C)C(CCc1ccccc1)C1CCC2(CC1)NCCc1c2[nH]c2ccccc12` (stereo not drawn) [Compound 20, 1,1-[3-(Dimethylamino-(phenylethyl)-methyl)-pentamethylene]-3,4-dihydro-1H-2,9-diazafluorene Citrate], in data set [1], the “% inhibition of the writhing reaction (dosage in mg/kg intravenously)” value (“% inhibition of the writhing reaction” below) is 45 (10) %. The compound also yielded an inhibition at 10 µM against Noradrenaline reuptake of 91%. Further, at Serotonin reuptake, at 10 µM the inhibition was 84%. At human μ opiate receptor, the inhibition at 1 µM is 97% and the pKi was 7.47.

`CN(C)C(c1ccccc1)C1CCC2(CC1)OCCc1c2[nH]c2ccccc12` (stereo not drawn) [Compound 27, 1,1-[3-(Dimethylamino-(phenyl)-methyl)-pentamethylene]-1,3,4,9-tetrahydropyrano[3,4-b]indole Citrate]: in data set [1], the “% inhibition of the writhing reaction” value is 53 (10) %. The inhibition at 10 µM at Noradrenaline reuptake was 64%; at Serotonin reuptake, 73%. Besides, the inhibition at 1 µM at human μ opiate receptor turned out to be 99%. Besides, the pKi on human μ opiate receptor was 7.59.

Turning to `CN(C)C(c1cccs1)C1CCC2(CC1)OCCc1c2[nH]c2ccccc12` (stereo not drawn) [Compound 29, 1,1-[3-(Dimethylamino-(thiophen-2-yl)-methyl)-pentamethylene]-1,3,4,9-tetrahydro-pyrano[3,4-b]indole], the “% inhibition of the writhing reaction” value in data set [1] was 73 (10) %. In addition, the inhibition at 10 µM against Serotonin reuptake was 45%. In addition, at human μ opiate receptor, the inhibition at 1 µM stood at 99% and the pKi was 7.82.

Turning to `CN(C)C(c1ccc(Cl)cc1)C1CCC2(CC1)OCCc1c2[nH]c2ccccc12` (stereo not drawn) [Compound 30, 1,1-[3-(Dimethylamino-(4-chlorophenyl)-methyl)-pentamethylene]-1,3,4,9-tetrahydro-pyrano[3,4-b]indole], the “% inhibition of the writhing reaction” value in data set [1] is recorded as 45 (10) %. Further, at Serotonin reuptake, at 10 µM the inhibition was 56%. Besides, at human μ opiate receptor, the inhibition at 1 µM is 84% and the negative-log Ki (pKi) is 6.77.
